Structures can show the parent of a compound that is named as a salt.
assay: acute toxicity, single oral administration to mice; settings: mouse, in vivo
Excerpt: The following Table contains the results obtained with representative compounds of the invention. In the Table there are given for each of listed compounds, the VD50 in mg/kg p.o. and the LD50 in mg/kg single oral administration to mice.

Compound	LD50
CCN(CC)CCn1c2ccccc2c(=NN=C2NCCS2)c2ccccc21 [10-[2-(diethylamino)ethyl]-9-acridanone (2-thiazolidinylidene)hydrazone]	312 to 625 mg/kg
CN(C)CCn1c2ccccc2c(=NN=C2NCCS2)c2ccccc21 [10-[2-(dimethylamino)ethyl]-9-acridanone (2-thiazolidinylidene)hydrazone]	250 to 500 mg/kg
CN1CCN(CCn2c3ccccc3c(=NNc3nccs3)c3ccccc32)CC1 [10-[2-(4-methyl-1-piperazinyl)ethyl]-9-acridanone (2-thiazolyl)hydrazone. 2.5 HCl]	625 to 1250 mg/kg
CN(C)CCn1c2ccccc2c(=NNc2nccs2)c2ccccc21.Cl.Cl [10-[2-(dimethylamino)ethyl]-9-acridanone (2-thiazolyl)hydrazone dihydrochloride]	312 to 625 mg/kg
CN1CCN(CCn2c3ccccc3c(=NN=C3NCCS3)c3ccccc32)CC1 [10-[2-(4-methyl-1-piperazinyl)ethyl]-9-acridanone (2-thiazolidinylidene)hydrazone]	156 to 312 mg/kg
CN(C)CCCn1c2ccccc2c(=NN=C2NCCS2)c2ccccc21 [10-[3-(dimethylamino)propyl]-9-acridanone (2-thiazolidinylidene)hydrazone]	125 to 250 mg/kg
CN(C)CCCn1c2ccccc2c(=NNc2nccs2)c2ccccc21.Cl.Cl [10-[3-(dimethylamino)propyl]-9-acridanone (2-thiazolyl)hydrazone dihydrochloride]	312 to 625 mg/kg
CC(=O)N1CCN(CCn2c3ccccc3c(=NN=C3NCCS3)c3ccccc32)CC1 [10-[2-(4-acetyl-1-piperazinyl)ethyl]-9-acridanone (2-thiazolidinylidene)hydrazone]	1250 to 2500 mg/kg
c1ccc2c(c1)c(=NNc1nccs1)c1ccccc1n2CCN1CCCCC1 [10-[2-(1-piperidinyl)ethyl]-9-acridanone (2-thiazolyl)hydrazone 1.5 HCl]	312 to 625 mg/kg
Cl.Cl.NCCn1c2ccccc2c(=NNc2nccs2)c2ccccc21 [10-(2-aminoethyl)-9-acridanone 2-thiazolylhydrazone dihydrochloride]	156 to 312 mg/kg
CC(=O)N1CCN(CCn2c3ccccc3c(=NNc3nccs3)c3ccccc32)CC1.Cl.Cl [10-[2-(4-acetyl-1-piperazinyl)ethyl]-9-acridanone (2-thiazolyl)hydrazone dihydrochloride]	312 to 625 mg/kg
CCN(CC)CCn1c2ccccc2c(=NNc2nccs2)c2ccccc21.Cl.Cl [10-[2-(diethylamino)ethyl]-9-acridanone (2-thiazolyl)hydrazone dihydrochloride]	> 5000 mg/kg
c1ccc2c(c1)c(=NN=C1NCCS1)c1ccccc1n2CCN1CCCC1 [10-[2-(1-pyrrolidinyl)ethyl]-9-acridanone (2-thiazolidinylidene)hydrazone]	156 to 312 mg/kg
